Measured values as given in patent US10472364B2 (Calithera Biosciences, Inc., priority 2016, dated 2019).

Target: endogenous, cell-bound CD73 on SK-MEL-28 cells (Homo sapiens (Human), UniProt P21589)
Experiment: Inhibition of endogenous, cell-bound CD73 enzyme activity in SK-MEL-28 cells (Malachite Green)
Assay type: cell-based
Details: 100 μM AMP, 30 minutes at room temperature
Protocol: The day before the experiment, 5000 cells were plated per well in a 96-well plate. Cells were washed twice with […] reaction buffer (20 mM HEPES, pH 7.4, 125 mM NaCl, 1 mM KCl, 2 mM MgCl2, 10 mM glucose) to remove residual inorganic phosphate. After washing, assays contained serial dilutions of test compounds and 100 μM of AMP in a total volume of 200 μL reaction buffer, with a final DMSO concentration≤0.5%. After 30 minutes at room temperature, supernatant was removed from the cells. […] The concentration of inorganic phosphate was determined using a phosphate standard curve to determine IC50.

endogenous, cell-bound CD73 on SK-MEL-28 cells, sequence (P21589 27-574): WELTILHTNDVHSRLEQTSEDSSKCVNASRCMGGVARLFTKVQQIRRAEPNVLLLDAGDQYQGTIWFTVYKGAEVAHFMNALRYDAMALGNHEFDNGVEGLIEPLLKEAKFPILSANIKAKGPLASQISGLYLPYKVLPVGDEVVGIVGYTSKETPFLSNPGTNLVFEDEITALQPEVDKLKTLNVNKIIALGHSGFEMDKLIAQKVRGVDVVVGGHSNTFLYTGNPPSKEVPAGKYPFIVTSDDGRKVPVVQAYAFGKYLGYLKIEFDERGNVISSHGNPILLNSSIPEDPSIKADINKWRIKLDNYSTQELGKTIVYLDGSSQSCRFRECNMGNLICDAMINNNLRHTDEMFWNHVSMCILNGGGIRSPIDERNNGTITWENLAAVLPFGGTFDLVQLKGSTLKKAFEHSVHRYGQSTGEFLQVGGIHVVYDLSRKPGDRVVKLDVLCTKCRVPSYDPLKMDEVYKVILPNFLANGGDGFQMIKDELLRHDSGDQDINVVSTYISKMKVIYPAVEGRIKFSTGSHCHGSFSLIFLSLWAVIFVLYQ

| SMILES | IC50 [µM] |
| --- | --- |
| COc1cccc(CC(OC[C@H]2O[C@@H](n3cnc4c(N)nc(Cl)nc43)[C@@H](F)[C@@H]2O)(C(=O)O)C(=O)O)c1 [compound 49] | 2.38 |
| Nc1nc(Cl)nc2c1ncn2[C@@H]1O[C@H](COC(Cc2ccc(OCc3ccccc3)cc2)(C(=O)O)C(=O)O)[C@@H](O)[C@@H]1F [compound 65, 2-(((2R,3R,4S,5R)-5-(6-amino-2-chloro-9H-purin-9-yl)-4-fluoro-3-hydroxytetrahydrofuran-2-yl)methoxy)-2-(4-(benzyloxy)benzyl)malonic acid] | 0.196 |
| N#Cc1ccc(CC(OC[C@H]2O[C@@H](n3cnc4c(N)nc(Cl)nc43)[C@@H](F)[C@@H]2O)(C(=O)O)C(=O)O)cc1F [compound 75, 2-(((2R,3R,4S,5R)-5-(6-amino-2-chloro-9H-purin-9-yl)-4-fluoro-3-hydroxytetrahydrofuran-2-yl)methoxy)-2-(4-cyano-3-fluorobenzyl)malonic acid] | 0.99 |
| Nc1nc(Cl)nc2c1ncn2[C@@H]1O[C@H](COC(Cc2ccc(Cl)nc2)(C(=O)O)C(=O)O)[C@@H](O)[C@@H]1F [compound 8, 2-(((2R,3R,4S,5R)-5-(6-amino-2-chloro-9H-purin-9-yl)-4-fluoro-3-hydroxytetrahydro-furan-2-yl)methoxy)-2-((6-chloropyridin-3-yl)methyl)malonic acid] | 0.772 |
| Nc1nc(Cl)nc2c1ncn2[C@@H]1O[C@H](COC(Cc2csc(C(=O)O)n2)(C(=O)O)C(=O)O)[C@@H](O)[C@@H]1F [compound 68, 2-(((2R,3R,4S,5R)-5-(6-amino-2-chloro-9H-purin-9-yl)-4-fluoro-3-hydroxytetrahydro-furan-2-yl)methoxy)-2-((2-carboxythiazol-4-yl)methyl)malonic acid] | 0.924 |
| CNC(=O)C(OC[C@H]1O[C@@H](n2cnc3c(N)nc(Cl)nc32)[C@@H](F)[C@@H]1O)P(=O)(O)O (stereo partly drawn) [compound 29, (1-(((2R,3R,4S,5R)-5-(6-amino-2-chloro-9H-purin-9-yl)-4-fluoro-3-hydroxytetrahydrofuran-2-yl)methoxy)-2-(methylamino)-2-oxoethyl)phosphonic acid] | 5.72 |
| Nc1nc(Cl)nc2c1ncn2[C@@H]1O[C@H](COC(Cc2nnn[nH]2)(C(=O)O)C(=O)O)[C@@H](O)[C@@H]1F [compound 50, 2-((1H-tetrazol-5-yl)methyl)-2-(((2R,3R,4S,5R)-5-(6-amino-2-chloro-9H-purin-9-yl)-4-fluoro-3-hydroxytetrahydrofuran-2-yl)methoxy)malonic acid] | 6.37 |
| Nc1nc(Cl)nc2c1ncn2[C@@H]1O[C@H](COC(Cc2ccc(C(F)(F)F)c(F)c2)(C(=O)O)C(=O)O)[C@@H](O)[C@@H]1F [compound 60, 2-(((2R,3R,4S,5R)-5-(6-amino-2-chloro-9H-purin-9-yl)-4-fluoro-3-hydroxytetrahydro-furan-2-yl)methoxy)-2-(3-fluoro-4-(trifluoromethyl)benzyl)malonic acid] | 0.512 |
| Nc1nc(Cl)nc2c1ncn2[C@@H]1O[C@H](COC(Cc2ccc(O)cc2)(C(=O)O)C(=O)O)[C@@H](O)[C@@H]1F [compound 66, 2-(((2R,3R,4S,5R)-5-(6-amino-2-chloro-9H-purin-9-yl)-4-fluoro-3-hydroxytetrahydrofuran-2-yl)methoxy)-2-(4-hydroxybenzyl)malonic acid] | 0.426 |
| CCOC(=O)C(Cc1ccc(OC(F)(F)F)cc1)(OC[C@H]1O[C@@H](n2cnc3c(N)nc(Cl)nc32)[C@@H](F)[C@@H]1O)C(=O)O (single isomer, unassigned) [compound 38] | 1.48 |
| Nc1nc(Cl)nc2c1ncn2[C@@H]1O[C@H](COC(Cc2ccc(OCC(=O)O)cc2)(C(=O)O)C(=O)O)[C@@H](O)[C@@H]1F [compound 92, 2-(((2R,3R,4S,5R)-5-(6-amino-2-chloro-9H-purin-9-yl)-4-fluoro-3-hydroxytetrahydrofuran-2-yl)methoxy)-2-(4-(carboxymethoxy)benzyl)malonic acid] | 0.202 |
| COC(=O)C(Cc1ccc(-c2ccccc2)cc1)(OC[C@H]1O[C@@H](n2cnc3c(N)nc(Cl)nc32)[C@@H](F)[C@@H]1O)C(=O)O (single isomer, unassigned) [compound 82] | 4.12 |
| Nc1nc(Cl)nc2c1ncn2[C@@H]1O[C@H](COC(Cc2cccc(Oc3ccccc3)c2)(C(=O)O)C(=O)O)[C@@H](O)[C@@H]1F [compound 13, 2-(((2R,3R,4S,5R)-5-(6-amino-2-chloro-9H-purin-9-yl)-4-fluoro-3-hydroxytetrahydrofuran-2-yl)methoxy)-2-(3-phenoxybenzyl)malonic acid] | 2.19 |
| Nc1nc(Cl)nc2c1ncn2[C@@H]1O[C@H](COC(Cc2ccc(F)cc2)(C(=O)O)C(=O)O)[C@@H](O)[C@@H]1F [compound 47] | 0.669 |
| Nc1nc(Cl)nc2c1ncn2[C@@H]1O[C@H](COC(Cc2cccc(C(=O)O)c2)(C(=O)O)C(=O)O)[C@@H](O)[C@@H]1F [compound 42] | 0.887 |
| Nc1nc(Cl)nc2c1ncn2[C@@H]1O[C@H](COC(Cc2ccccc2)(C(=O)O)C(=O)O)[C@@H](N)[C@H]1O [compound 51, 2-(((2S,3S,4R,5R)-3-amino-5-(6-amino-2-chloro-9H-purin-9-yl)-4-hydroxytetrahydrofuran-2-yl)methoxy)-2-benzylmalonic acid] | 4.34 |
| Nc1nc(Cl)nc2c1ncn2[C@@H]1O[C@H](COC(Cc2ccc(C(=O)NCCC(=O)O)cc2)(C(=O)O)C(=O)O)[C@@H](O)[C@@H]1F [compound 87, 2-(((2R,3R,4S,5R)-5-(6-amino-2-chloro-9H-purin-9-yl)-4-fluoro-3-hydroxytetrahydro-furan-2-yl)methoxy)-2-(4-((2-carboxy-ethyl)carbamoyl)benzyl)malonic acid] | 0.549 |
| Nc1nc(Cl)nc2c1ncn2[C@@H]1O[C@H](COC(Cc2ccc(C(F)(F)F)nc2)(C(=O)O)C(=O)O)[C@@H](O)[C@@H]1F [compound 32, 2-(((2R,3R,4S,5R)-5-(6-amino-2-chloro-9H-purin-9-yl)-4-fluoro-3-hydroxytetrahydrofuran-2-yl)methoxy)-2-((6-(trifluoromethyl)pyridin-3-yl)methyl)malonic acid] | 2.32 |
| CC(C)(C)OC(=O)Nc1nc(N=[N+]=[N-])nc2c1ncn2[C@@H]1O[C@H](COC(Cc2cccc(C#N)c2)(C(=O)O)C(=O)O)[C@@H](O)[C@@H]1F [compound 41] | 4.88 |
| Nc1nc(Cl)nc2c1ncn2[C@@H]1O[C@H](COC(Cc2ccc(C(F)(F)F)cc2)(C(=O)O)C(=O)O)[C@@H](O)[C@@H]1F [compound 20, 2-(((2R,3R,4S,5R)-5-(6-amino-2-chloro-9H-purin-9-yl)-4-fluoro-3-hydroxytetrahydrofuran-2-yl)methoxy)-2-(4-(trifluoromethyl)benzyl)malonic acid] | 0.611 |
| Nc1nc(Cl)nc2c1ncn2[C@@H]1O[C@H](COC(Cc2ccc(S(N)(=O)=O)cc2)(C(=O)O)C(=O)O)[C@@H](O)[C@@H]1F [compound 86, 2-(((2R,3R,4S,5R)-5-(6-amino-2-chloro-9H-purin-9-yl)-4-fluoro-3-hydroxytetrahydrofuran-2-yl)methoxy)-2-(4-sulfamoylbenzyl)malonic acid] | 0.626 |
| Nc1nc(Cl)nc2c1ncn2[C@@H]1O[C@H](COC(Cc2cccc(O)c2)(C(=O)O)C(=O)O)[C@@H](O)[C@@H]1F [compound 56, 2-(((2R,3R,4S,5R)-5-(6-amino-2-chloro-9H-purin-9-yl)-4-fluoro-3-hydroxytetrahydrofuran-2-yl)methoxy)-2-(3-hydroxybenzyl)malonic acid] | 1.25 |
